Assays:
Type in all cases: biochemical
[1] = molecular target: T1, Abl (h) (Homo sapiens, UniProt P00519); test: Abl (h) kinase assay (Upstate, 33P-ATP filtermat); settings: 100 uM of inhibitor; ATP 45 uM
T1 construct: purchased Upstate Ltd
Experimental: (§1) The compounds of the invention prepared in Examples 1-32 were tested for kinase inhibition against a range of common protein kinases. All kinase assays were conducted at Upstate Ltd, Gemini Crescent, Dundee Technology Park, Dundee, DD2 1SW, UK in accordance with its standard protocols as follows:
(§2) In a final reaction volume of 25 μl, Abl (h) (5-10 mU) is incubated with 8 mM MOPS pH 7.0, 0.2 mM EDTA, 50 μM EAIYAAPFAKKK, 10 mM MgAcetate and [[…]-33P-ATP] (specific activity approx. 500 cpm/pmol, concentration as required). The reaction is initiated by the addition of the MgATP mix. After incubation for 40 minutes at room temperature, the reaction is stopped by the addition of 5 μl of a 3% phosphoric acid solution. 10 μl of the reaction is then spotted onto a P30 filtermat and washed three times for 5 minutes in 75 mM phosphoric acid and once in methanol prior to drying and scintillation counting.
(§3) Data for compounds. ATP concentrations are: Arg=45 uM; abl=45 uM; AuroraA=15 uM; Chk1=90 uM; KDR=90 uM; P70S6=15 uM. Figures represent the % inhibition when tested at 100 uM of inhibitor.

[2] = molecular target: T2, Aurora-A (h) (Homo sapiens, UniProt O14965); test: Aurora-A (h) kinase assay (Upstate, 33P-ATP filtermat); settings: 100 uM of inhibitor, ATP 15 uM; for inhibition at 100 µM: read-out: AuroraA (h) % inhibition
T2 construct: purchased Upstate Ltd
T2 sequence (O14965 1-403): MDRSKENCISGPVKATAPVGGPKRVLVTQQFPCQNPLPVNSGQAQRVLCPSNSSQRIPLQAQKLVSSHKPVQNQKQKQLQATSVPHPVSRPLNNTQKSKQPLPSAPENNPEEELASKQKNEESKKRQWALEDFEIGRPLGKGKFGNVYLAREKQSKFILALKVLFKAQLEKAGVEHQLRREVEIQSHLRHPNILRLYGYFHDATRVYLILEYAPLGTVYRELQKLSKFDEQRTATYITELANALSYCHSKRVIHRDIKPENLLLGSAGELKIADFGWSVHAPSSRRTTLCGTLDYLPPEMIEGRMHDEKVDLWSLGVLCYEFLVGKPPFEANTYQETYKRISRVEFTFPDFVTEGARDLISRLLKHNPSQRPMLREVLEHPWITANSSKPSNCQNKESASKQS
Experimental: as §1
as §2, with “μl, Aurora-A” for “μl, Abl”, “EDTA, 200” for “EDTA, 50”, “μM LRRASLG (Kemptide),” for “μM EAIYAAPFAKKK,”, “and […]-33P-ATP]” for “and [[…]-33P-ATP]”, “in 50” for “in 75”
as §3

[3] = molecular target: T3, CHK1 (h) (Homo sapiens, UniProt O14757); test: CHK1 (h) kinase assay (Upstate, 33P-ATP filtermat); settings: 100 uM of inhibitor; ATP 90 uM
T3 construct: purchased Upstate Ltd
T3 sequence (O14757 1-476): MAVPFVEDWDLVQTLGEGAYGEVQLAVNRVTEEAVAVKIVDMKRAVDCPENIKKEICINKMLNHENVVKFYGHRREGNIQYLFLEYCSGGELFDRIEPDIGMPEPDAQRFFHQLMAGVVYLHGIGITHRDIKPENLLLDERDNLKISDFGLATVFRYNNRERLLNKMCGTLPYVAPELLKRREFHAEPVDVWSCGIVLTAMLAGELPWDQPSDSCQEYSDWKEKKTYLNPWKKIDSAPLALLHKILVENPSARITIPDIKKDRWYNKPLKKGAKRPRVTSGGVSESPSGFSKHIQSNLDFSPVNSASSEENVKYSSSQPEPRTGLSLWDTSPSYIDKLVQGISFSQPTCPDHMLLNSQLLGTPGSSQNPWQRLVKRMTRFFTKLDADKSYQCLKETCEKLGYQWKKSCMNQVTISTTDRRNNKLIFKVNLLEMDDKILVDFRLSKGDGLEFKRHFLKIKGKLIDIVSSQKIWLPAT
Experimental: as §1
as §2, with “μl, CHK1” for “μl, Abl”, “EDTA, 200” for “EDTA, 50”, “μM […],” for “μM EAIYAAPFAKKK,”, “and […]-33P-ATP]” for “and [[…]-33P-ATP]”
as §3

[4] = molecular target: T4, p70S6K (h) (Homo sapiens, UniProt P23443); test: p70S6K (h) kinase assay (Upstate, 33P-ATP filtermat); settings: 100 uM of inhibitor, ATP 15 uM; for inhibition at 100 µM: read-out: P70S6 (h) % inhibition
T4 construct: purchased Upstate Ltd
T4 sequence (P23443 whole entry): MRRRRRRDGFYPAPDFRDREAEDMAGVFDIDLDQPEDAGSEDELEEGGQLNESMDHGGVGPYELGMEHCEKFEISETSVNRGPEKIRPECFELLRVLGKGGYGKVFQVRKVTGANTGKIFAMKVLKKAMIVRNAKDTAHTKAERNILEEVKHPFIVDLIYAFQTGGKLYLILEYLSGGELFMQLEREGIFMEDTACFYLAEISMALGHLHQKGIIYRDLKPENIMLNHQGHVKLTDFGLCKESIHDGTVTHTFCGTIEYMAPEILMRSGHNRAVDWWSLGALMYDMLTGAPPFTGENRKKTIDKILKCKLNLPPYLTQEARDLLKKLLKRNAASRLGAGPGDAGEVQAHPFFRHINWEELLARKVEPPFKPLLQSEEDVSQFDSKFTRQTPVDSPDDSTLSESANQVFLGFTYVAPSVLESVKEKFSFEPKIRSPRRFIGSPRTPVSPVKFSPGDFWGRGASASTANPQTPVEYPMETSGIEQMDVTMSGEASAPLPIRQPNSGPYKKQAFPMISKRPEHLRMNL
Experimental: as §1
as §2, with “μl, p70S6K” for “μl, Abl”, “EDTA, 100” for “EDTA, 50”, “μM KKRNRTLTV,” for “μM EAIYAAPFAKKK,”
as §3

[5] = molecular target: T5, Arg (h) (Homo sapiens, UniProt P42684); test: Arg (h) kinase assay (Upstate, 33P-ATP filtermat); settings: 100 uM of inhibitor; ATP 45 uM
T5 construct: purchased Upstate Ltd
T5 sequence (P42684 whole entry): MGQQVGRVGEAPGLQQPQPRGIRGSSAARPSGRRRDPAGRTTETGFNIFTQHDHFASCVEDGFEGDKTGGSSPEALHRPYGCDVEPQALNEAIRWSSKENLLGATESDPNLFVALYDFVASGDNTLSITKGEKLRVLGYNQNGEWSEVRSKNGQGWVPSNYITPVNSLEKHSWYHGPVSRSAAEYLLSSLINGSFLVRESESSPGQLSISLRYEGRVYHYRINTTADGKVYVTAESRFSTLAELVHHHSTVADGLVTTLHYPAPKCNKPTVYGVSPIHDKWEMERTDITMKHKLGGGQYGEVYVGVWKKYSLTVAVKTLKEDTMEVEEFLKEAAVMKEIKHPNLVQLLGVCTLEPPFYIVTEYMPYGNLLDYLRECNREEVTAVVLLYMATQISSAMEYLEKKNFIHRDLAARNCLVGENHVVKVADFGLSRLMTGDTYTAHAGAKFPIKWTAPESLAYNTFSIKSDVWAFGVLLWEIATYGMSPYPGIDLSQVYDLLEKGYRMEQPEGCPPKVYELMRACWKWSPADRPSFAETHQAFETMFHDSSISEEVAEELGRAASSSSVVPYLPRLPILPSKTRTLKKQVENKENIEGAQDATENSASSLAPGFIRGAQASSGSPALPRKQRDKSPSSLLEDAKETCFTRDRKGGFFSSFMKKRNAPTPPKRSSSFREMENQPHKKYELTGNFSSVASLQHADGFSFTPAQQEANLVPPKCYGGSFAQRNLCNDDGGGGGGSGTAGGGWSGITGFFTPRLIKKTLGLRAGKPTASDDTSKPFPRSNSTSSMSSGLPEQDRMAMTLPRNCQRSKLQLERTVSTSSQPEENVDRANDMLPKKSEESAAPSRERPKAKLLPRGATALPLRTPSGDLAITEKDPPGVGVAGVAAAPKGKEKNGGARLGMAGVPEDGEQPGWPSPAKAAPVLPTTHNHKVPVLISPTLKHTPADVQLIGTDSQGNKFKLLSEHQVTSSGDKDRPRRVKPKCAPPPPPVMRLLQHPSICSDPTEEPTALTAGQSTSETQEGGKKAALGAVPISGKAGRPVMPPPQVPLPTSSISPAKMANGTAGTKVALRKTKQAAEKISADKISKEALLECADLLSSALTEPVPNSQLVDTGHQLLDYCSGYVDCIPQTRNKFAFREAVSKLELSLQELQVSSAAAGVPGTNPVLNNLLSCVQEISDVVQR
Experimental: as §1
as §2, with “Arg” for “Abl”
as §3

[6] = molecular target: T6, KDR (h) (Homo sapiens, UniProt P35968); test: KDR (h) kinase assay (Upstate, 33P-ATP filtermat); settings: 100 uM of inhibitor; ATP 90 uM
T6 construct: purchased Upstate Ltd
T6 sequence (P35968 20-1356): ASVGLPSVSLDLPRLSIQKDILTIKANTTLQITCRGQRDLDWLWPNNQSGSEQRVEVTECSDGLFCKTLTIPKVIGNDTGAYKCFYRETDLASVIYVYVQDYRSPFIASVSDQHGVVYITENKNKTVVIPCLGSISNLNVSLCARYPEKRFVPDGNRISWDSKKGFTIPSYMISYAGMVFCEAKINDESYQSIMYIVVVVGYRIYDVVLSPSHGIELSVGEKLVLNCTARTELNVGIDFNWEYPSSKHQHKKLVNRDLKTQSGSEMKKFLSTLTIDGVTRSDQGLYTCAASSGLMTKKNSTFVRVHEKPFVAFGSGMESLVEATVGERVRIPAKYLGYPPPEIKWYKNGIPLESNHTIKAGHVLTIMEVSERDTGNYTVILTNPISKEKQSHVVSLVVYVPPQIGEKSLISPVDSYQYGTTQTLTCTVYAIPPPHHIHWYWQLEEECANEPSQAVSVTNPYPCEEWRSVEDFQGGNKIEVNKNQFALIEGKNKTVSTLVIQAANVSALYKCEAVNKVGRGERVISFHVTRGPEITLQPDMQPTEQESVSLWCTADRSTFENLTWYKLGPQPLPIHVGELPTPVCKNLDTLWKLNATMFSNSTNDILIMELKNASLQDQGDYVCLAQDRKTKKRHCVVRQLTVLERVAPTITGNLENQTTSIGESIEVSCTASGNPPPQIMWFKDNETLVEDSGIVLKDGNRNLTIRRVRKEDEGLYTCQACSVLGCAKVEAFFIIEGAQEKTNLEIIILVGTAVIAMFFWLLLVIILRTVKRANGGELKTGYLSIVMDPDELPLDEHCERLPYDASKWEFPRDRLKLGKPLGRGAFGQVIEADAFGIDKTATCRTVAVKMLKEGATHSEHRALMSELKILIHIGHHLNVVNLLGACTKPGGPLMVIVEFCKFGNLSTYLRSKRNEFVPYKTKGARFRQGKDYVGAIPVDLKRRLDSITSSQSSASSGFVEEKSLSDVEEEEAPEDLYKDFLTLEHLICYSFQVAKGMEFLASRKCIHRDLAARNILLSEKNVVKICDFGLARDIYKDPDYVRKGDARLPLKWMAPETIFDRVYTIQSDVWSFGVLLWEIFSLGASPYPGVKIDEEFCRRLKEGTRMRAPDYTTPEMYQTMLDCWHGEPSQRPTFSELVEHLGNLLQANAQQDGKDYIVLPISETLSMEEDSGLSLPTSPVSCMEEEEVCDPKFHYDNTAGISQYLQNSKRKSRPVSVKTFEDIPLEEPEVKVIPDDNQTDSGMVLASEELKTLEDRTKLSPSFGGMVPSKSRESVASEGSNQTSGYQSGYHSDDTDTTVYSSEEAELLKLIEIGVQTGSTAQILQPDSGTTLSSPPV
Experimental: as §1
as §2, with “KDR” for “Abl”, “0.33 mg/ml myelin basic protein,” for “50 μM EAIYAAPFAKKK,”
as §3

T1 sequence (P00519 whole entry): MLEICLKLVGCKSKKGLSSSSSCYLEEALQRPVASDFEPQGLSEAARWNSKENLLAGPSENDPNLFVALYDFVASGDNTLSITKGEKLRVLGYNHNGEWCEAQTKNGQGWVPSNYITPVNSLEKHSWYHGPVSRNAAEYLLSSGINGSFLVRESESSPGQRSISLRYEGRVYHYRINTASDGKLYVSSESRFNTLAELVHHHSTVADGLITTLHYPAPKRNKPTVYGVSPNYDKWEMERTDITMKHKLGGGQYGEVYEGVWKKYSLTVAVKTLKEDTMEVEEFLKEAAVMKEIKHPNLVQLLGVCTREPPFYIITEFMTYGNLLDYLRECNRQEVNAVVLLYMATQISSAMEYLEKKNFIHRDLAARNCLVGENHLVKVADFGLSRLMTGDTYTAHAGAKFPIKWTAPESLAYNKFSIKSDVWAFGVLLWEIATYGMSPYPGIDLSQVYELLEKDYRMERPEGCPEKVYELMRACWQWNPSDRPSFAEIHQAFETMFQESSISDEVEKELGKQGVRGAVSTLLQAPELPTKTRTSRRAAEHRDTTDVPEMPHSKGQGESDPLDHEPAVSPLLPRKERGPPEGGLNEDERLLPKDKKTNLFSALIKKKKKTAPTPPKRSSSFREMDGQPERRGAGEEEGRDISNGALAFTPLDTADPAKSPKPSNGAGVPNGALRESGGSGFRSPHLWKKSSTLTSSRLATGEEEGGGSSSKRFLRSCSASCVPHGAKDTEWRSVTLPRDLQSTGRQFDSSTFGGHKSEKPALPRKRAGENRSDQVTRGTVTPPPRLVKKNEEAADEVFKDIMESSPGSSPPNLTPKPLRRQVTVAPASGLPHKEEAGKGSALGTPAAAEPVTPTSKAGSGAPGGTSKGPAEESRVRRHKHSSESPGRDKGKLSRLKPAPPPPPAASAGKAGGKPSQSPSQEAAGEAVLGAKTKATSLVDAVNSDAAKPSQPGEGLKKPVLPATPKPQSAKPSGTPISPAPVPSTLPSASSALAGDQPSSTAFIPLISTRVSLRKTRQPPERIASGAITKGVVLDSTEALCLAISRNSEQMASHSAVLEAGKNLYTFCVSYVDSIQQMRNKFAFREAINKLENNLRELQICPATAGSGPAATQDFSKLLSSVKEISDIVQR

## c1cncc(Nc2nnc3ccccc3n2)c1 [Example 3, Benzo[1,2,4]triazin-3-yl-pyridin-3-yl-amine]
[1]
  inhibition at 100 µM: 65%
[2]
  inhibition at 100 µM: 68%
[3]
  inhibition at 100 µM: 21%
[4]
  inhibition at 100 µM: 9%
[5]
  inhibition at 100 µM: 71%

## [O-][n+]1nc(Nc2ccc(N3CCNCC3)cc2)nc2ccccc21 [Example 5, (1-Oxy-benzo[1,2,4]triazin-3-yl)-(4-piperazin-1-yl-phenyl)-amine]
[1]
  Abl (h) % inhibition: 83%
[2]
  AuroraA (h) % inhibition: 24%
[3]
  Chk1 (h) % inhibition: 7%
[5]
  Arg (h) % inhibition: 78%

## c1ccc2nc(Nc3ccc(N4CCNCC4)cc3)nnc2c1 [Example 6, Benzo[1,2,4]triazin-3-yl-(4-piperazin-1-yl-phenyl)-amine]
[1]
  inhibition at 100 µM: 89%
[2]
  inhibition at 100 µM: 41%
[3]
  inhibition at 100 µM: 33%
[5]
  inhibition at 100 µM: 92%

## Nc1nc2ccc(-c3cn[nH]c3)cc2[n+]([O-])n1 [Example 7, 1-Oxy-7-(1H-pyrazol-4-yl)-benzo[1,2,4]triazin-3-ylamine]
[1]
  Abl (h) % inhibition: 86%
[2]
  AuroraA (h) % inhibition: 98%
[6]
  KDR (h) % inhibition: 98%
[3]
  Chk1 (h) % inhibition: 31%
[4]
  P70S6 (h) % inhibition: 99%
[5]
  Arg (h) % inhibition: 81%

## Nc1nnc2cc(-c3cn[nH]c3)ccc2n1 [Example 8, 7-(1H-Pyrazol-4-yl)-benzo[1,2,4]triazin-3-ylamine]
[1]
  inhibition at 100 µM: 87%
[2]
  inhibition at 100 µM: 100%
[6]
  inhibition at 100 µM: 96%
[3]
  inhibition at 100 µM: 26%
[4]
  inhibition at 100 µM: 97%
[5]
  inhibition at 100 µM: 82%

## Cc1cc(Nc2nnc3ccccc3n2)n[nH]1 [Example 11, Benzo[1,2,4]triazin-3-yl-(5-methyl-1H-pyrazol-3-yl)-amine]
[1]
  inhibition at 100 µM: 36%
[2]
  inhibition at 100 µM: 37%
[3]
  inhibition at 100 µM: 32%
[5]
  inhibition at 100 µM: 40%

## [O-][n+]1nc(Nc2ccc(N3CCNCC3)nc2)nc2ccccc21 [Example 20, (1-Oxy-benzo[1,2,4]triazin-3-yl)-(6-piperazin-1-yl-pyridin-3-yl)-amine]
[1]
  Abl (h) % inhibition: 72%
[2]
  AuroraA (h) % inhibition: 52%
[3]
  Chk1 (h) % inhibition: 1%
[5]
  Arg (h) % inhibition: 77%
